Reference: patent US20240150334A1, “HSD17B13 INHIBITORS AND/OR DEGRADERS” (Pfizer Inc., priority 2022, published 2024)

What was measured:
[1] = biological target: wild type human HSD17B13 (Homo sapiens (Human), UniProt Q7Z5P4); assay: HEK_Beta-Est LCMS_IC50_Tekcel, whole-cell HEK-HSD17B13 inhibition assay, estrone production by LCMS; format: cell-based; conditions: geometric mean, HEK cells stably expressing wild type human HSD17B13, 25 μM FAC beta-estradiol, read-out: HEK_Beta-Est LCMS_IC50—Tekcel GMean IC50
How it was run: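 HEK cells expressing wild-type human HSD17B13 were preincubated with compound for 1 hour at 37° C, then the beta-estradiol/NAD+ reaction ran for 2 hours at 37° C. Estrone formed was quantified by LCMS as product area ratio and normalized to uninhibited vehicle-control wells.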

[2] = biological target: HSD17B13 enzyme (Homo sapiens (Human), UniProt Q7Z5P4); assay: hHSD17B13 IC50 Assay (FAC beta-estradiol), purified protein enzyme activity assay with NAD(P)H-Glo luciferase readout; format: biochemical; conditions: geometric mean, 12 μM FAC beta-estradiol, 500 μM NAD+, read-out: hHSD17B13_IC50 GMean IC50
How it was run: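 Purified human HSD17B13 (30 nM FAC) incubated with compound, beta-estradiol and NAD+ for 2 h at room temperature in the dark. NADH formation was detected by NAD(P)H-Glo luminescence after 1 h. RLUs normalized to uninhibited enzyme (vehicle) as zero effect.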

Chain of HSD17B13 enzyme (Q7Z5P4 20-300): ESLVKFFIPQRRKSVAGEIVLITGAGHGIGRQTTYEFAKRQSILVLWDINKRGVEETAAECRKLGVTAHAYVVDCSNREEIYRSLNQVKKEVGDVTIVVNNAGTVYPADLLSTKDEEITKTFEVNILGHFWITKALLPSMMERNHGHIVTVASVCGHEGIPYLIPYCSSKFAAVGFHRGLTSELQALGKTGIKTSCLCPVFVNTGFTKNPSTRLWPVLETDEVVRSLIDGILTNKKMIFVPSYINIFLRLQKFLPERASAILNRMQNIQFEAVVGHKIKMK
Chain of wild type human HSD17B13 (Q7Z5P4 20-300): as above

Compound	IC50 [1]	IC50 [2]
O=C(NC[C@]12CC[C@](c3nc(-c4ccc(C(F)(F)F)nn4)no3)(CC1)CC2)c1cc(F)c(O)cc1F [Example 185, 2,5-difluoro-4-hydroxy-N-[(4-{3-[6-(trifluoromethyl)pyridazin-3-yl]-1,2,4-oxadiazol-5-yl}bicyclo[2.2.2]octan-1-yl)methyl]benzamide]	140 nM	3.7 nM
O=C(NC[C@H]1CC[C@H](N2Cc3cc(Cl)ccc3C2=O)CC1)c1cc(F)c(O)cc1F [Example 186, N-{[(1r,4r)-4-(5-chloro-1-oxo-1,3-dihydro-2H-isoindol-2-yl)cyclohexyl]methyl}-2,5-difluoro-4-hydroxybenzamide]	480 nM	15 nM
O=C(NC[C@H]1CC[C@H](n2cc3cc(Cl)ncc3n2)CC1)c1cc(F)c(O)c(F)c1 [Example 187, N-{[(1r,4r)-4-(5-chloro-2H-pyrazolo[3,4-c]pyridin-2-yl)cyclohexyl]methyl}-3,5-difluoro-4-hydroxybenzamide]	400 nM	10 nM
O=C(NC[C@H]1CC[C@H](n2cc3cnc(-c4ccncc4)cc3n2)CC1)c1cc(F)c(O)c(F)c1 [Example 188, 3,5-difluoro-4-hydroxy-N-({(1r,4r)-4-[6-(pyridin-4-yl)-2H-pyrazolo[4,3-c]pyridin-2-yl]cyclohexyl}methyl) benzamide]	240 nM	11 nM
O=C(NC[C@]12CC[C@](c3noc(-c4cccc(OS(=O)(=O)F)c4)n3)(CC1)CC2)c1cc(F)c(O)c(F)c1 [Example 190, 3-(3-{4-[(3,5-difluoro-4-hydroxybenzamido)methyl]bicyclo[2.2.2]octan-1-yl}-1,2,4-oxadiazol-5-yl) phenyl sulfurofluoridate]	420 nM	8.6 nM
O=C(NC[C@]12CC[C@](c3nc(-c4cnc(C(F)(F)F)cn4)no3)(CC1)CC2)c1cc(F)c(O)c(F)c1 [Example 191, 3,5-difluoro-4-hydroxy-N-[(4-{3-[5-(trifluoromethyl)pyrazin-2-yl]-1,2,4-oxadiazol-5-yl}bicyclo[2.2.2]octan-1-yl)methyl]benzamide]	120 nM	9.7 nM
O=C(NC[C@]12CC[C@](n3cc4cc(C(F)(F)F)ccc4n3)(CC1)CC2)c1cc(F)c(O)c(F)c1F [Example 193, 2,3,5-trifluoro-4-hydroxy-N-({4-[5-(trifluoromethyl)-2H-indazol-2-yl]bicyclo [2.2.2]octan-1-yl}methyl)benzamide]	440 nM	22 nM
O=C(NC[C@]12CC[C@](c3nc(-c4ccc(C(F)(F)F)nc4)no3)(CC1)CC2)c1cc(F)c(O)cc1F [Example 195, 2,5-difluoro-4-hydroxy-N-[(4-{3-[6-(trifluoromethyl)pyridin-3-yl]-1,2,4-oxadiazol-5-yl}bicyclo [2.2.2]octan-1-yl)methyl]benzamide]	390 nM	16 nM
O=C(NC[C@]12CC[C@](c3nc(-c4ccc(C(F)(F)F)nc4)no3)(CC1)CC2)c1cc(F)c(O)c(F)c1F [Example 196, 2,3,5-trifluoro-4-hydroxy-N-[(4-{3-[6-(trifluoromethyl)pyridin-3-yl]-1,2,4-oxadiazol-5-yl}bicyclo[2.2.2]octan-1-yl)methyl]benzamide]	340 nM	12 nM
O=C(NC[C@H]1CC[C@H](c2nc(-c3ccc(C(F)(F)F)nc3)no2)CC1)c1cc(F)c(O)cc1F [Example 197, 2,5-difluoro-4-hydroxy-N-{[(1r,4r)-4-{3-[6-(trifluoromethyl)pyridin-3-yl]-1,2,4-oxadiazol-5-yl}cyclohexyl]methyl} benzamide]	470 nM	39 nM

Other lines, results leading:

IC50 [1]	IC50 [2]	Compound
310 nM	6.5 nM	O=C(NC[C@H]1CC[C@H](c2nc(-c3ncc(C(F)(F)F)cn3)no2)CC1)c1cc(F)c(O)cc1F [Example 198, 2,5-difluoro-4-hydroxy-N-{[(1r,4r)-4-{3-[5-(trifluoromethyl)pyrimidin-2-yl]-1,2,4-oxadiazol-5-yl}cyclohexyl]methyl} benzamide]
370 nM	8.8 nM	O=C(NC[C@H]1CC[C@H](n2cc3cc(-c4cccnc4)ncc3n2)CC1)c1cc(F)c(O)c(F)c1 [Example 199, 3,5-difluoro-4-hydroxy-N-({(1r,4r)-4-[5-(pyridin-3-yl)-2H-pyrazolo[3,4-c]pyridin-2-yl]cyclohexyl}methyl) benzamide]
350 nM	10 nM	Cn1cc(-c2cc3cn([C@H]4CC[C@H](CNC(=O)c5cc(F)c(O)c(F)c5)CC4)nc3cn2)cn1 [Example 200, 3,5-difluoro-4-hydroxy-N-({(1r,4r)-4-[5-(1-methyl-1H-pyrazol-4-yl)-2H-pyrazolo[3,4-c]pyridin-2-yl]cyclohexyl}methyl) benzamide]
220 nM	49 nM	O=C(NC[C@]12CC[C@](n3cc4ccccc4n3)(CC1)CC2)c1cc(F)c(O)c(F)c1 [Example 202, 3,5-difluoro-4-hydroxy-N-{[4-(2H-indazol-2-yl)bicyclo [2.2.2]octan-1-yl]methyl}benzamide]
450 nM	18 nM	O=C(NC[C@H]1CC[C@H](c2nc(-c3ccc(C(F)(F)F)cn3)no2)CC1)c1cc(F)c(O)c(F)c1F [Example 210, 2,3,5-trifluoro-4-hydroxy-N-{[(1r,4r)-4-{3-[5-(trifluoromethyl)pyridin-2-yl]-1,2,4-oxadiazol-5-yl}cyclohexyl]methyl}benzamide]
2700 nM	15 nM	Cc1ccc(-c2noc([C@H]3CC[C@H](CNC(=O)c4cc(F)c(O)c(F)c4)CC3)n2)nn1 [Example 211, 3,5-difluoro-4-hydroxy-N-({(1r,4r)-4-[3-(6-methyl-pyridazin-3-yl)-1,2,4-oxadiazol-5-yl]cyclohexyl}methyl) benzamide]
2300 nM	26 nM	Cc1ccc(-c2noc([C@H]3CC[C@H](CNC(=O)c4cc(F)c(O)c(F)c4F)CC3)n2)nn1 [Example 212, 2,3,5-trifluoro-4-hydroxy-N-({(1r,4r)-4-[3-(6-methylpyridazin-3-yl)-1,2,4-oxadiazol-5-yl]cyclohexyl}methyl) benzamide]
